Measurements as given in EP2872621B1, “METHOD FOR THE GENERATION OF NON-TRANSFORMED MACROPHAGE CELL LINES” (Max-Planck-Gesellschaft zur Förderung der Wissenschaften …, priority 2012, dated 2014).

Columns and labels:
BMMs = experiment: Cytokine response of BMMs to microbial stimuli (ELISA, bioassay); type: cell-based, mouse
Source text: BMMs (Bone Marrow derived Macrophages) and GM-CSF induced BMDCs were generated as described (Fejer et al., 2008). The purity of BMMs was higher than 98%, of BMDCs approximately 80%. SP37A3 cells were originally grown in RPMI in the presence of GM-CSF and M-CSF as described (Bros et al., 2007). Cells growing in media with […] GM-CSF but without M-CSF were selected from the original cells and used further in the studies shown here.
(§1) Sarcin assay, measuring Ad endosomal escape was done as described previously (Schreiner et al., 2012). […] Non-endotoxin ligands were substantially LPS-free (less than or equal to 1 pg LPS/1011 viral particles) as determined by the Limulus amebocyte lysate test from Pyroquant. […]
Detection of secreted cytokines, surface antigens, intracellular proteins and enzymatic activity The following cytokines were detected with ELISA using commercially available antibody pairs or kits: mouse IL-6 (BD Bioscience), IL-1α (eBioscience), IL-1β (eBioscience) and IL-10 (eBioscience), human IL-6 (R&D Systems), IL-1α (eBioLegend) and IL-10 (BD Bioscience). IFN-αβ and TNF-α activities were measured with bioassays as described (Fejer et al., 2005). […] Intracellular proteins were detected on immunoblots with antibodies from Pharmingen BD (IL-1α and IL-1β) and Cell Signalling (phosphorylated isophorm of p38 MAPK). […]

MPI cells = experiment: Cytokine response of MPI cells to microbial stimuli (ELISA, bioassay); type: cell-based, mouse
Protocol: Single cell suspensions (0.5x10^6 cells/ml) from fetal livers of 15 to 19 day-old mouse embryos or of livers of new-born mice (up to 2 weeks of age) were washed in PBS and resuspended in RPMI 1640 containing 10% fetal calf serum and supplemented with 20 ng/ml recombinant murine GM-CSF (also referred to herein as MPI medium). Rapidly proliferating cells were subcultured by splitting them 1:5 in MPI medium using cells detached with PBS/1.5 mM EDTA and floating cells in the culture. Cells proliferated more slowly after 2 weeks of culture. GM-CSF was replenished weekly and subcultures in MPI medium were made when total (attached and floating) cell density reached approximately 0.5 x 10^6 cell/ml. […]
as §1
Detection of secreted cytokines, surface antigens, intracellular proteins and enzymatic activity The following cytokines were detected with ELISA using commercially available antibody pairs or kits: mouse IL-6 (BD Bioscience), IL-1α (eBioscience), IL-1β (eBioscience) and IL-10 (eBioscience), human IL-6 (R&D Systems), IL-1α (eBioLegend) and IL-10 (BD Bioscience). […]

FSL-1
IFN-αβ production (BMMs): neither of the cell types produced IFN-αβ
IFN-αβ production (MPI cells; MPI cells): neither of the cell types produced IFN-αβ
IL-6 and TNF-α levels (MPI cells; MPI cells in comparison to BMMs): higher levels
